Assay results from ChEMBL document CHEMBL1938237, “Bioactive lipids from the sponge Spirastrella abata” (Bioorg Med Chem Lett, 2012).
Values after ≈ are worked out from the molar mass of the structure shown.

Legend:
[1] = system: Micrococcus luteus; experiment: Antibacterial activity against Micrococcus luteus IFO 12708; assay type: functional
[2] = system: Salmonella typhimurium; experiment: Antibacterial activity against Salmonella Typhimurium ATCC 14028; assay type: functional, Salmonella enterica subsp. enterica serovar Typhimurium; details: Salmonella enterica
[3] = system: Aspergillus fumigatus; experiment: Antifungal activity against Aspergillus fumigatus HIC 6094; assay type: functional
[4] = system: Escherichia coli; experiment: Antibacterial activity against Escherichia coli ATCC 35270; assay type: functional
[5] = system: Trichophyton mentagrophytes; experiment: Antifungal activity against Trichophyton mentagrophytes IFO 40996; assay type: functional
[6] = system: Proteus vulgaris; experiment: Antibacterial activity against Proteus vulgaris ATCC 3851; assay type: functional
[7] = system: Staphylococcus aureus; experiment: Antibacterial activity against Staphylococcus aureus ATCC 6538p; assay type: functional
[8] = system: Candida albicans; experiment: Antifungal activity against Candida albicans ATCC 10231; assay type: functional
[9] = Inhibition of isocitrate lyase
[10] = system: Trichophyton rubrum; experiment: Antifungal activity against Trichophyton rubrum IFO 9185; assay type: functional
[11] = Inhibition of Na+/K+ ATPase
[12] = system: K562; experiment: Cytotoxicity against human K562 cells; assay type: functional; details: read-out: LC50 (the source's name)
[13] = system: Bacillus subtilis; experiment: Antibacterial activity against Bacillus subtilis ATCC 6633; assay type: functional

Compound	MIC [1] [µg/mL]	MIC [2] [µg/mL]	MIC [3] [µg/mL]	MIC [4] [µg/mL]	MIC [5] [µg/mL]	MIC [6] [µg/mL]	MIC [7] [µg/mL]	MIC [8] [µg/mL]	IC50 [9] [µM]	MIC [10] [µg/mL]	IC50 [11] [µM]	CC50 [12] [µM]	MIC [13] [µg/mL]
CC(C)CCCCCCCC/C=C/C[C@H](OS(=O)(=O)O)[C@H](O)[C@H](N)CO	100 (≈ 253 µM)	100 (≈ 253 µM)	> 100	> 100	> 100	100 (≈ 253 µM)	> 100	> 100	24	> 100	21	8	100 (≈ 253 µM)
O=C(O)CC[N+](=O)[O-]	–	–	–	–	–	–	–	–	1	–	–	–	–
COc1cccc2c1C(=O)c1c(O)c3c(c(O)c1C2=O)C[C@@](O)(C(=O)CO)C[C@@H]3O[C@H]1C[C@H](N)[C@H](O)[C@H](C)O1 [DOXORUBICIN]	–	–	–	–	–	–	–	–	–	–	–	7	–
CCCCCC[C@H]1C[C@H]1CCCCCCCCCC(=O)OC[C@@H](O)COP(=O)([O-])OCC(O)CO.[Na+] (relative stereo)	–	–	> 100	–	–	> 100	> 100	13	87	–	4	4	–
CCCCCCCCCCC/C=C/C[C@H](OS(=O)(=O)O)[C@H](O)[C@H](N)CO	25 (≈ 63.2 µM)	100 (≈ 253 µM)	100 (≈ 253 µM)	> 100	50 (≈ 126 µM)	25 (≈ 63.2 µM)	50 (≈ 126 µM)	50 (≈ 126 µM)	2	> 100	25	8	6 (≈ 15.2 µM)
CC1(C)S[C@@H]2[C@H](NC(=O)[C@H](N)c3ccccc3)C(=O)N2[C@H]1C(=O)O [AMPICILLIN]	2 (≈ 5.72 µM)	2 (≈ 5.72 µM)	–	6 (≈ 17.2 µM)	–	1 (≈ 2.86 µM)	1 (≈ 2.86 µM)	–	–	–	–	–	2 (≈ 5.72 µM)
C[C@@H]1[C@H](O)[C@@H](C)/C=C/C=C/C=C/C=C/C=C/C=C/C=C/[C@H](O[C@@H]2O[C@H](C)[C@@H](O)[C@H](N)[C@@H]2O)C[C@@H]2O[C@](O)(C[C@@H](O)C[C@@H](O)[C@H](O)CC[C@@H](O)C[C@@H](O)CC(=O)O[C@H]1C)C[C@H](O)[C@H]2C(=O)O [AMPHOTERICIN B]	–	–	1 (≈ 1.08 µM)	–	2 (≈ 2.16 µM)	–	–	1 (≈ 1.08 µM)	–	2 (≈ 2.16 µM)	–	–	–
C[C@@H]1O[C@@H](O[C@H]2C[C@@H](O)[C@]3(CO)[C@H]4[C@H](O)C[C@]5(C)[C@@H](C6=CC(=O)OC6)CC[C@]5(O)[C@@H]4CC[C@]3(O)C2)[C@H](O)[C@H](O)[C@H]1O [OUABAIN]	–	–	–	–	–	–	–	–	–	–	4	–	–
CCCCCCCCCC/C=C/C[C@H](OS(=O)(=O)O)[C@H](O)[C@H](N)CO	100 (≈ 262 µM)	> 100	> 100	> 100	> 100	25 (≈ 65.5 µM)	> 100	> 100	20	> 100	21	7	12 (≈ 31.5 µM)
